In patent USRE30241E, “Esters of 3-(hydroxy or hydroxymethyl)-4-hydroxyphenyl aminomethyl ketones” (Sterling Drug Inc., priority 1970, dated 1980):
Like-named read-outs stand apart in the source and are kept apart here.

Tests used:
[1] = test system: carbachol- or histamine-induced bronchoconstriction; experiment: Bronchodilator Test Method I, anesthetized dog, intraduodenal activity; format: in vivo; settings: Canis lupus familiaris, read-out: Bronchodilation; for inhibition in vivo at 0.032 mg/kg: 32 mcg/kg (salt) intraduodenal; for inhibition in vivo at 0.128 mg/kg: 128 mcg/kg (salt) intraduodenal; for inhibition in vivo at 0.068 mg/kg: 68 mcg/kg (salt) intraduodenal; for inhibition in vivo at 0.136 mg/kg: 136 mcg/kg (salt) intraduodenal
Protocol: Male and female dogs weighing 9-18 kg. each were anesthetized with pentobarbital sodium (30 mg./kg. i.v.). Each animal, with thorax opened at the midsternum, was maintained under artificial ventilation using a constant volume pump (250 ml./stroke; 10 to 12 strokes per minute) attached to the tracheal cannula. The flow of air was controlled by a glass or plastic valve which closed and opened respectively on inflow and outflow of the air to and from the tracheal cannula. Bronchoconstriction and/or bronchodilatation were measured from changes in the basal airway pressure reflected by a transducer attached to the sidearm of the cannula relayed to a polygraph.
Control bronchoconstrictions were induced by intravenous injections of carbachol (choline chloride carbamate) in doses ranging from 4 to 6 micrograms per kilogram or histamine diphosphate in doses ranging from 35 to 45 micrograms per kilogram. In the majority of test animals, the above doses of constrictor agents produced a 100-200 percent increase in the normal airway pressure or amplitude.
Injections were repeated at 20-30 minutes.
In intraduodenal studies, in the dog prepared for bronchodilation measurements, the duodenal segment of the small intestine was made easily accessible through a small mid-line incision in the abdomen. The test solution was injected into the duodenum using a fine needle. Commencing 5 minutes after medication, the degree and duration of bronchodilation were tested by injecting a control dose of carbachol or histamine at intervals of 30-60 minutes until the recovery or near-recovery was apparent. In some dogs showing an early recovery, a reference drug was also tested in the same dog 1.5-2 hours after the first medicine.

[2] = test system: carbachol- or histamine-induced bronchoconstriction; experiment: Bronchodilator Test Method I, anesthetized dog, intravenous activity; format: in vivo; settings: Canis lupus familiaris, read-out: Bronchodilatation; for inhibition in vivo at 0.008 mg/kg: 8 mcg/kg i.v.; for inhibition in vivo at 0.032 mg/kg: 32 mcg/kg i.v.; for inhibition in vivo at 0.128 mg/kg: 128 mcg/kg i.v.; for inhibition in vivo at 0.068 mg/kg: 68 mcg/kg i.v.; for inhibition in vivo at 0.137 mg/kg: 137 mcg/kg i.v.; for inhibition in vivo at 0.274 mg/kg: 274 mcg/kg i.v.
Procedure, shortened: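 Pentobarbital-anesthetized (30 mg/kg i.v.), open-chest, artificially ventilated dogs were given i.v. carbachol (4-6 µg/kg) or histamine diphosphate (35-45 µg/kg). Test compound was given i.v. mixed with, after, or 1-10 min before the constrictor.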

[3] = test system: guinea pig bronchioles constricted by carbachol; experiment: Bronchodilator Test Method II, in vitro perfused guinea pig lung; settings: for Duration, Mean: dose 10 mcg (base)
Protocol: In this method bronchodilator activity in vitro was determined by testing the effect of graded doses of the test compounds on guinea pig bronchioles constricted by carbachol, using the technique reported by Sollman and von Oettingen, Proc. Soc, Exp. Biol. Med., 25,692 (1928) as modified by Tainter, Pedden, and James, J. Pharm. Exp. Ther., 51, 371 (1934) and by Luduena, von Euler, Tullar, and Lands, Arch. intern. Pharmacol., III, 392 (1957).

## CC(=O)OCc1cc(C(O)CNC(C)(C)C)ccc1OC(=O)c1ccc(C)cc1 (stereo not drawn) [Example 150, 3-acetoxymethyl-4-(p-toluyloxy)-alpha-(tert-butylaminomethyl)benzyl alcohol methanesulfonate]
[1]; 5 min, 5 min
  inhibition in vivo at 0.032 mg/kg: 12%
  inhibition in vivo at 0.128 mg/kg: 68%
[1]; 0.5 h, 30 min
  inhibition in vivo at 0.032 mg/kg: 12%
  inhibition in vivo at 0.128 mg/kg: 68%
[1]; 1 h, 60 min
  inhibition in vivo at 0.032 mg/kg: 12%
  inhibition in vivo at 0.128 mg/kg: 61%
[1]; 2 h, 120 min
  inhibition in vivo at 0.032 mg/kg: 0%
  inhibition in vivo at 0.128 mg/kg: 61%
[1]; 3 h, 180 min
  inhibition in vivo at 0.032 mg/kg: 0%
  inhibition in vivo at 0.128 mg/kg: 45%
[1]; 4 h, 240 min
  inhibition in vivo at 0.128 mg/kg: 39%
[2]; 5 min, 5 min
  inhibition in vivo at 0.008 mg/kg: 42%
  inhibition in vivo at 0.032 mg/kg: 64%
  inhibition in vivo at 0.128 mg/kg: 85%
[2]; 0.5 h, 30 min
  inhibition in vivo at 0.008 mg/kg: 37%
  inhibition in vivo at 0.032 mg/kg: 66%
  inhibition in vivo at 0.128 mg/kg: 87%
[2]; 1 h, 60 min
  inhibition in vivo at 0.008 mg/kg: 44%
  inhibition in vivo at 0.032 mg/kg: 54%
  inhibition in vivo at 0.128 mg/kg: 67%
[2]; 2 h, 120 min
  inhibition in vivo at 0.008 mg/kg: 44%
  inhibition in vivo at 0.032 mg/kg: 40%
  inhibition in vivo at 0.128 mg/kg: 60%
[2]; 3 h, 180 min
  inhibition in vivo at 0.008 mg/kg: 32%
  inhibition in vivo at 0.032 mg/kg: 30%
  inhibition in vivo at 0.128 mg/kg: 52%
[2]; 4 h, 240 min
  inhibition in vivo at 0.008 mg/kg: 20%
  inhibition in vivo at 0.032 mg/kg: 0%
  inhibition in vivo at 0.128 mg/kg: 24%
[3]; carbachol (Doryl) 1:5 million
  ED50 (printed in brackets, footnote **ED50): 9.3 µg (base)
[3]
  Duration, Mean: 25.5 ± 16.2 min

## Cc1cccc(C(=O)Oc2ccc(C(O)CNC(C)(C)C)cc2OC(=O)c2cccc(C)c2)c1 (stereo not drawn) [Example 112, 3,4-bis(m-toluyloxy)-alpha-(tert-butylaminomethyl)benzyl alcohol]
[1]; 5 min, 5 min
  inhibition in vivo at 0.068 mg/kg: 50%
  inhibition in vivo at 0.136 mg/kg: 42%
[1]; 10 min, 10 min
  inhibition in vivo at 0.068 mg/kg: 0%
  inhibition in vivo at 0.136 mg/kg: 59%
[1]; 0.5 h, 30 min
  inhibition in vivo at 0.136 mg/kg: 67%
[1]; 1 h, 60 min
  inhibition in vivo at 0.136 mg/kg: 53%
[1]; 2 h, 120 min
  inhibition in vivo at 0.136 mg/kg: 0%
[2]; 5 min, 5 min
  inhibition in vivo at 0.068 mg/kg: 38%
  inhibition in vivo at 0.137 mg/kg: 80%
  inhibition in vivo at 0.274 mg/kg: 80%
[2]; 0.5 h, 30 min
  inhibition in vivo at 0.068 mg/kg: 43%
  inhibition in vivo at 0.137 mg/kg: 60%
  inhibition in vivo at 0.274 mg/kg: 74%
[2]; 1 h, 60 min
  inhibition in vivo at 0.068 mg/kg: 27%
  inhibition in vivo at 0.137 mg/kg: 50%
  inhibition in vivo at 0.274 mg/kg: 57%
[2]; 2 h, 120 min
  inhibition in vivo at 0.137 mg/kg: 37%
  inhibition in vivo at 0.274 mg/kg: 54%
[2]; 3 h, 180 min
  inhibition in vivo at 0.137 mg/kg: 8%
  inhibition in vivo at 0.274 mg/kg: 33%
[2]; 4 h, 240 min
  inhibition in vivo at 0.274 mg/kg: 38%
[2]; 4.5 h, 270 min
  inhibition in vivo at 0.274 mg/kg: 25%
[3]; carbachol (Doryl) 1:5 million
  ED50: 4.4 µg (base)
[3]
  Duration, Mean: 104.1 ± 34.9 min
